Results published in ChEMBL document CHEMBL3585279, “Novel 2,5-disubtituted-1,3,4-oxadiazoles with benzimidazole backbone: a new class of β-glucuronidase inhibitors and in silico studies” (Bioorg Med Chem, 2015).

Molecular target: T1, Beta-glucuronidase (Homo sapiens, UniProt P08236)
T1 sequence (P08236 whole entry): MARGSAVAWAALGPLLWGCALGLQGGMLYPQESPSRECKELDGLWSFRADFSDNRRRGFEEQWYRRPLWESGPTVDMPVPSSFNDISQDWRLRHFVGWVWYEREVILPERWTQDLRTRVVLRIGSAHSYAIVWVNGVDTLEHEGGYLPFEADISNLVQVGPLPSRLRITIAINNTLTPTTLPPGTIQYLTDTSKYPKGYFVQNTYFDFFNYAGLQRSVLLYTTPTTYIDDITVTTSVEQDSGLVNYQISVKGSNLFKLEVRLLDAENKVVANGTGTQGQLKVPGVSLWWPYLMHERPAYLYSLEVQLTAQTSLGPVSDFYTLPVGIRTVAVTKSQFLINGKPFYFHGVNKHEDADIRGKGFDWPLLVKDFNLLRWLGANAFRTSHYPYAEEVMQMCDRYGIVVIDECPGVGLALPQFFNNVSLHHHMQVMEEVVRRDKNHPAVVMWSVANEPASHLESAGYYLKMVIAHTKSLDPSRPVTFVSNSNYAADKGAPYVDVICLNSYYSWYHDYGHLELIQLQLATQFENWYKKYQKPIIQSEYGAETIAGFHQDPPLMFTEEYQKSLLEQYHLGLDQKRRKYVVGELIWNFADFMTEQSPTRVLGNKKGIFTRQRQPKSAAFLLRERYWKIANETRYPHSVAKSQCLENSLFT
Description: Inhibition of beta-D-glucuronidase (unknown origin) assessed as reduction in p-nitrophenol formation using p-nitrophenyl-beta-D-glucuronide substarte incubated at 37 degC for 30 mins by spectrophotometric method

IC50, Not Active:
COc1ccc(-c2nnc(-c3ccc(-c4nc5cc(C)c(C)cc5[nH]4)cc3)o2)cc1
Cc1cccc(-c2nnc(-c3ccc(-c4nc5cc(C)c(C)cc5[nH]4)cc3)o2)c1
Cc1cc2nc(-c3ccc(-c4nnc(-c5ccccc5C)o4)cc3)[nH]c2cc1C
